Assay results from patent US7626043B2, “Antiproliferative activity of the leiodermatolide class of macrolides” (Florida Atlantic University Board of Trustees, priority 2006, dated 2009).

Key:
Assay type in all cases: cell-based
[1] = system: PANC-1 human pancreatic carcinoma cells; test: Cell cycle analysis (propidium iodide flow cytometry), PANC-1; conditions: PANC-1, 24 hr
Description: PANC-1 human pancreatic carcinoma cells were used as cell cycle targets to compare the effects on perturbation of the cell cycle of leiodermatolide and the known mitotic spindle inhibitor Paclitaxel. Cell cycle analyses were performed as follows: PANC-1 […] were incubated in tissue culture media (TCM=Roswell Park Memorial Institute (RPMI) medium 1640 supplemented with 100 U/ml penicillin, […] 1-glutamine, 18 mM HEPES, 0.05 mg/ml gentamicin, 100 μg/ml sodium pyruvate, 2.5 mg/ml glucose and 10% fetal bovine serum) at 37° C. in 5% CO2 in air in the presence or absence of varying concentrations of leiodermatolide or Paclitaxel for 24 hours.
(§1) Cells were harvested, fixed in ethanol and stained with 0.02 mg/ml of propidium iodide (P.I.) together with 0.1 mg/ml of RNAse A. This procedure permeabilizes cells and allows entry of P.I. to stain DNA (propidium iodide also stains double stranded RNA, so RNAse is included in the preparation to exclude this possibility). Stained preparations were analyzed on a BD Sciences Calibur Flow Cytometer with 488 nm excitation. Fluorescence measurements and resulting DNA histograms were collected from at least 3,000 P.I. stained cells at an emission wavelength of 690 nm. Raw histogram data was further analyzed using a cell cycle analysis program (Multicycle, Phoenix Flow Systems).

[2] = system: A549 human lung adenocarcinoma; test: MTT antiproliferative/cytotoxicity assay, A549; conditions: 72-h exposure
Description: (§2) Leiodermatolide was analyzed as to its effects on the proliferation of a panel of tumor cell lines including both cell lines. The cell lines tested include: A549 human lung adenocarcinoma, NCI-ADR-RES (Formerly MCF-7/ADR) human cancer, PANC-1 human pancreatic cancer, DLD-1 human colorectal carcinoma, and P388 murine leukemia cell lines. P388 cells were obtained from Dr. R. Camalier, National Cancer Institute Bethesda, Md., and A549, PANC-1, DLD-1 and NCI-ADR-RES cells were obtained from American Type Culture Collection, Rockville, Md. […]
(§3) A volume of 75 μl of warm growth media containing 5 mg/ml MTT is added to each well, cultures returned to the incubator, and left undisturbed for 3 hours. To spectrophotometrically quantitate formation of reduced formazan, plates are centrifuged (900×g, 5 minutes), culture fluids removed by aspiration, and 200 μl of acidified isopropanol (2 ml concentrated HCl/liter isopropanol) added per well. The absorbance of the resulting solutions is measured at 570 nm with a plate reader (BMG labtech NOVOStar). […] The two standard drug controls (indicated above) are included in each assay to monitor the drug sensitivity of each of the cell lines and IC50 values are determined for each drug-cell combination.

P388 murine leukemia = test: MTT antiproliferative/cytotoxicity assay, P388; conditions: Mus musculus, 48-hr exposure
Description: as §2, §3

[3] = system: DLD-1 human colorectal carcinoma; test: MTT antiproliferative/cytotoxicity assay, DLD-1; conditions: 72-h exposure
Description: as §2, §3

[4] = system: PANC-1 human pancreatic cancer; test: MTT antiproliferative/cytotoxicity assay, PANC-1; conditions: 72-h exposure
Description: as §2, §3

[5] = system: A549 human lung adenocarcinoma cells; test: Cell cycle analysis (propidium iodide flow cytometry), A549; conditions: A549, 24 hr
Description: A549 human lung adenocarcinoma cells were used as cell cycle targets to compare the effects on perturbation of the cell cycle of leiodermatolide to the known mitotic spindle inhibitor Paclitaxel. Cell cycle analyses were performed as follows: A549 human lung adenocarcinoma cells were incubated in tissue culture media (TCM=Roswell Park Memorial Institute (RPMI) medium 1640 supplemented with 100 U/ml penicillin, […] 1-glutamine, 18 mM HEPES, 0.05 mg/ml gentamicin and 10% fetal bovine serum) at 37° C. in 5% CO2 in air in the presence or absence of varying concentrations of leiodermatolide or Paclitaxel for 24 hours.
as §1

[6] = system: NCI-ADR-RES (Formerly MCF-7/ADR) human cancer; test: MTT antiproliferative/cytotoxicity assay, NCI-ADR-RES; conditions: 72-h exposure, read-out: NCIADR-RES IC50
Description: as §2, §3

[7] = 10 nM, listed as leiodermatolide
[8] = 100 nM, listed as leiodermatolide

## CCC1OC(=O)CC(O)(C/C=C/C=C(\C)C2OC(=O)CC/C=C(\C)C(C)C(O)C(C)C(OC(N)=O)/C=C\C=C/C2C)C1C (centres unmarked) [Leiodermatolide]
[1]; 1 nM
  G1 (percentage of cells): 47.88%
  G2/M (percentage of cells): 28.93%
  S (percentage of cells): 23.18%
[1]; 10 nM
  G1 (percentage of cells): 12.04%
  G2/M (percentage of cells): 83.45%
  S (percentage of cells): 4.51%
[1]; [7]
  G1 (percentage of cells): 12%
  G2/M (percentage of cells): 83%
  S (percentage of cells): 4%
[1]; 100 nM
  G1 (percentage of cells): 16.55%
  G2/M (percentage of cells): 77.45%
  S (percentage of cells): 6.00%
[1]; [8]
  G1 (percentage of cells): 16%
  G2/M (percentage of cells): 77%
  S (percentage of cells): 6%
[1]; 1000 nM
  G1 (percentage of cells): 29.54%
  G2/M (percentage of cells): 63.92%
  S (percentage of cells): 6.53%
[2]
  IC50: 3.3 nM
P388 murine leukemia
  IC50: 3.3 nM
[3]
  IC50: 8.3 nM
[4]
  IC50: 5 nM
[5]; 1 nM
  G1 (percentage of cells): 55.75%
  G2/M (percentage of cells): 13.40%
  S (percentage of cells): 30.85%
[5]; 10 nM
  G1 (percentage of cells): 2.97%
  G2/M (percentage of cells): 97.03%
  S (percentage of cells): 0.00%
[5]; [7]
  G1 (percentage of cells): 3%
  G2/M (percentage of cells): 97%
  S (percentage of cells): 0%
[5]; 100 nM
  G1 (percentage of cells): 1.70%
  G2/M (percentage of cells): 98.30%
  S (percentage of cells): 0.00%
[5]; [8]
  G1 (percentage of cells): 2%
  G2/M (percentage of cells): 98%
  S (percentage of cells): 0%
[5]; 1000 nM
  G1 (percentage of cells): 4.99%
  G2/M (percentage of cells): 95.01%
  S (percentage of cells): 0.00%
[6]
  IC50: 233 nM

## CC(=O)O[C@H]1C(=O)[C@@]2(C)[C@H]([C@H](OC(=O)c3ccccc3)[C@]3(O)C[C@H](OC(=O)[C@H](O)[C@@H](NC(=O)c4ccccc4)c4ccccc4)C(C)=C1C3(C)C)[C@]1(OC(C)=O)CO[C@@H]1C[C@@H]2O [Paclitaxel, reference compound]
[1]; 100 nM
  G1 (percentage of cells): 10%
  G2/M (percentage of cells): 88%
  S (percentage of cells): 2%
[1]; 100 nM, listed as paclitaxel
  G1 (percentage of cells): 9.76%
  G2/M (percentage of cells): 88.36%
  S (percentage of cells): 1.88%
[5]; 100 nM
  G1 (percentage of cells): 2%
  G2/M (percentage of cells): 98%
  S (percentage of cells): 0%
[5]; 100 nM, listed as taxol
  G1 (percentage of cells): 2.18%
  G2/M (percentage of cells): 97.82%
  S (percentage of cells): 0.00%
